Source: PubChem BioAssay (NCI)
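Compound exposure: 48 hours, 5 concentrations, 96-well plates. GI50: concentration for 50% inhibition of growth. The concentration for full growth arrest is given as TGI.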

How the values were obtained:
Test in all cases: growth of human tumour cells (NCI), 48 h
KM20L2 colon = test system: KM20L2 colon
DMS 273 small cell lung = test system: DMS 273 small cell lung
LXFL 529 NSCLC = test system: LXFL 529 NSCLC
RXF-631 renal = test system: RXF-631 renal
XF 498 CNS = test system: XF 498 CNS
M19-MEL melanoma = test system: M19-MEL melanoma
DMS 114 small cell lung = test system: DMS 114 small cell lung
HOP-18 NSCLC = test system: HOP-18 NSCLC
MDA-N = test system: MDA-N

SMILES | TGI (KM20L2 colon) [µM] | TGI (DMS 273 small cell lung) [µM] | TGI (LXFL 529 NSCLC) [µM] | TGI (RXF-631 renal) [µM] | TGI (XF 498 CNS) [µM] | TGI (M19-MEL melanoma) [µM] | TGI (DMS 114 small cell lung) [µM] | TGI (HOP-18 NSCLC) [µM] | TGI (MDA-N) [µM] | further results
O=C(CC1(O)C(=O)Nc2ccccc21)c1ccc(Cl)cc1Cl (stereo not given) | > 100 | > 100 | > 100 | > 100 | > 100 | > 100 | > 100 |  |  | 
O=S1(=O)c2cc(S(=O)(=O)n3ccnc3)ccc2NC2=NCCCN21 | 41.7 |  | > 100 |  |  | > 100 | 49.6 | > 100 |  | 
CCc1cccc(C(C)CC)c1NC(=O)C(=O)Cc1nc2ccccc2o1 (stereo not given) | > 50 | > 50 | > 50 |  | > 50 | > 50 | > 50 |  |  | 
O=C1OC(c2ccc(Cl)cc2)=N/C1=C\c1ccccc1 |  |  |  |  |  |  |  |  | > 100 | 
CN(/N=C/c1ccccc1O)c1ccc2ccccc2n1 |  |  |  |  |  |  |  |  | > 100 | 
COC(=O)/C(=N\NC(N)=O)C(C#N)c1ccccc1 (stereo not given) | > 100 |  | > 100 |  | > 100 | > 100 | > 100 | > 100 |  | 
CC(=O)NCc1c(C(N)=O)ncn1Cc1ccccc1 | > 100 | > 100 | > 100 | > 100 | > 100 | > 100 | > 100 | > 100 |  | 
COc1cc(/C=C2\NC(=O)C3Cc4c(OC)c(C)c(OC)c(OC)c4C2N3C)c(OC)c(C)c1OC (stereo not given) | > 100 | > 100 | > 100 | > 100 | > 100 | > 100 | > 100 | > 100 |  | 
C1C[OH+]CCNCC[OH+]CC[OH+]CCN1.N.[Cl-].[Pt+4] | > 100 | > 100 | > 100 |  |  |  |  | > 100 |  | GI50 (KM20L2 colon): 22.8 µM; GI50 (HOP-18 NSCLC): 37.5 µM; GI50 (DMS 273 small cell lung): 28.7 µM; GI50 (LXFL 529 NSCLC): > 100 µM
Cc1cc(=O)oc2cc3oc(N(C)c4ccccc4)nc(=O)c3cc12 |  |  |  |  |  |  |  |  | > 100 | 
Brc1ccc(C=NC23CC4CC(CC(C4)C2)C3)cc1 | > 100 | > 100 | > 100 | > 100 | > 100 | > 100 | > 100 | > 100 |  | 
CC1OC(CC(=O)O)Cc2c1c(O)c1c(O)cc(-c3cc(=O)c4c(=O)c5c(c(=O)c=4c3=O)CC(CC(=O)O)OC5C)c(O)c1c2O (stereo not given) | > 68 | 47 | 22.8 |  | 34.5 | 49 | 40 | 45.7 |  | GI50 (MDA-N): 29.1 µM
CCCCCCCC(=O)OCC1OC(n2cc(F)c(=O)[nH]c2=O)C(N)C(O)C1O (stereo not given) | > 100 | > 100 | > 100 |  |  | > 100 | > 100 | > 100 |  | 
O=[N+]([O-])c1cc(I)cc(/C=N/NS(=O)(=O)c2ccc(Cl)cc2)c1O | > 100 | 38.5 | 37.2 | 45.3 |  | 56.9 |  | 45.5 |  | 
Cc1ccc2[nH]c(O)c(N=Nc3ccccc3[N+](=O)[O-])c2c1 |  |  |  |  |  |  |  |  | > 100 | 
N#CC1(N2CCCC2)CCC2(CC1)OCCO2 | > 100 | > 10 |  |  |  | > 10 | > 100 |  |  | 
O=C(CC1(O)C(=O)Nc2ccc([N+](=O)[O-])cc21)c1ccncc1 (stereo not given) | > 100 |  |  | 54.7 | 34.2 | 63.1 | 82.8 | > 100 |  | 
N#CC(C(=O)CCC(=O)Nc1cccc(C(F)(F)F)c1)c1ccccc1 (stereo not given) | > 100 | > 100 | > 100 |  | > 100 | > 100 | > 100 |  |  | 
FC(F)(F)c1nc(SCc2ccc(Cl)cc2)n[nH]1 |  |  |  |  |  |  |  |  | > 100 | 
CCc1[nH]nc(C(N)=O)c1N=NN(C)C |  |  |  |  |  |  |  |  | > 100 | 
CCC[CH2][Sn]1([CH2]CCC)[O]CC[S]1 | 2.75 | 3.56 | 0.579 | 1.34 | 1.02 | 2.75 | 1.26 | 1.89 |  | GI50 (KM20L2 colon): 1.41 µM; GI50 (HOP-18 NSCLC): 0.717 µM; GI50 (DMS 273 small cell lung): 1.13 µM; GI50 (LXFL 529 NSCLC): 0.134 µM; GI50 (RXF-631 renal): 0.285 µM; GI50 (XF 498 CNS): 0.476 µM; GI50 (M19-MEL melanoma): 0.475 µM; GI50 (DMS 114 small cell lung): 0.272 µM
CCN(CC)CCCNc1n[n+]([O-])c2ccccc2[n+]1[O-] |  |  |  |  |  |  |  |  | > 100 | 
